# According to paper PMC9550238, “Novel TRKB agonists activate TRKB and downstream ERK and AKT signaling to protect Aβ-GFP SH-SY5Y cells against Aβ toxicity” (Aging (Albany NY), 2022):
# B1: BDNF: Brain-derived neurotrophic factor, a neurotrophic factor binding TRKB (protein, UniProt P23560 19-247, looked up)
# Neurotrophic factor BDNF …: APMKEANIRGQGGLAYPGVRTHGTLESVNGPKAGSRGLTSLADTFEHVIEELLDEDQKVRPNEENNKDADLYTSRVMLSSQVPLEPPLLFLLEEYKNYLDAANMSMRVRRHSDPARRGELSVCDSISEWVTAADKKTAVDMSGGTVTVLEKVPVSKGQLKQYFYETKCNPMGYTKEGCRGIDKRHWNSQCRTTQSYVRALTMDSKKRIGWRFIRIDTSCVCTLTIKRGR
# Columns and labels:
# [1] = in vitro; format: in vitro ADME
# Description: The permeability of LMDS-1 and -2 was determined by a PAMPA-BBB assay. Firstly, 300 μl of LMDS-1 or -2 (1 μM) solution were added to the donor well (Millipore). Bupropion (a high permeability marker), piroxicam (a low permeability marker), and lucifer yellow (an integrity marker) (Sigma-Aldrich) were used as quality control (QC) compounds for comparison. The sandwich with aqueous donor on the bottom, artificial lipid membrane (PVDF filter coated with porcine polar brain lipid) in the middle, and aqueous acceptor (5% DMSO in PBS) on the top was assembled as stated. Each compound was tested in triplicate. After incubation for 18 h at the ambient temperature, the PAMPA sandwich plate was separated. The concentrations of test and QC compounds in the donor and acceptor wells were measured as stated, and the effective permeability coefficient (Pe) was computed.
# [2] = tested on: Aβ-GFP SH-SY5Y cells; assay: Comparison of BDNF and LMDS compounds on TRKB signaling, immunoblot; format: cell-based, Human; details: for p-CREB: induced untreated 42%; for p-ERK: induced untreated 64%; for p-AKT: induced untreated 65%
# Description: (§1) Total proteins from Aβ-GFP SH-SY5Y cells were prepared, quantified, electrophoretically separated and blotted as stated. Following blocking, the membrane was probed with antibody against BDNF (1:500; Santa Cruz Biotechnology #sc-546, Santa Cruz, CA, USA), BCL2 (1:200; Santa Cruz Biotechnology #sc-7382), BAX (1:200; Santa Cruz Biotechnology #sc-7480), TRKB (1:500; Cell Signaling Technology #4603, Danvers, MA, USA), p-TRKB (Y516) (1:200; GeneTex #GTX32230, Irvine, CA, USA), p-TRKB (Y816) (1:1000; Millipore #ABN1381, Billerica, MA, USA), ERK (1:1000; Cell Signaling Technology #9102), p-ERK (T202/Y204) (1:1000; Cell Signaling Technology #9101), AKT (1:1000; Abcam #ab126811, Cambridge, CB, UK), p-AKT (S473) (1:1000; Cell Signaling Technology #4060), CREB (1:500; Santa Cruz Biotechnology #sc-186), p-CREB (S133) (1:1000; Millipore #06-519), or loading control GAPDH (glyceraldehyde-3-phosphate dehydrogenase) (1:1000; MDBio #30000002, Taipei, Taiwan). The immune complexes were detected as stated.
# [3] = tested on: Aβ-GFP SH-SY5Y cells; assay: ERK/PI3K kinase inhibitor treatment, immunoblot of TRKB downstream targets; format: cell-based, Human; details: 5 μM; induced untreated 61–64%
# [4] = tested on: Aβ-GFP SH-SY5Y cells; assay: Aβ folding reporter GFP fluorescence; format: cell-based, Human; details: for intensity of GFP fluorescence: untreated cells 100%; for EC50: Homo sapiens, 144 h, Aβ-GFP SH-SY5Y cells, compounds 1.2–5 μM, Dox 6 days, read-out: Aβ aggregation inhibition EC50 (GFP fluorescence)
# Description: Human neuroblastoma SH-SY5Y-derived Aβ-GFP cells were maintained as stated. The recombinant Aβ-GFP protein has a 12 amino acid-containing linker between the fused Aβ and GFP. Doxycycline (5 μg/ml; Sigma-Aldrich) was used to induce Aβ-GFP expression.
# Neuronal differentiation of Aβ-GFP SH-SY5Y cells was induced by retinoic acid (10 μM; Sigma-Aldrich). Cells on 96-well plate (2.5 × 10^4/well) were seeded on day 1, pre-treated with test compounds (1.2–5 μM) plus induced Aβ-GFP expression (5 μg/ml doxycycline) on day 2, and stained with Hoechst 33342 (0.1 μg/ml; Sigma-Aldrich) on day 8 as stated. Cell images were then captured at 482 nm excitation/536 nm emission wavelengths (ImageXpress Micro Confocal high-content system) and analyzed (MetaXpress image acquisition and analysis software) (Molecular Devices, Sunnyvale, CA, USA). In addition, ROS was quantified on day 8 following CellROX Deep Red stain (5 μM; Molecular Probes, Waltham, MA, USA) using the high-content system with excitation/emission wavelengths of 644/665 nm.
# [5] = molecular target: T1, Aβ42 peptide (Homo sapiens, UniProt P05067); assay: Thioflavin T Aβ aggregation inhibition assay; format: biochemical; details: Aβ42, compounds 5–20 μM
# T1 construct: assessed by using Aβ42 peptide (AnaSpec, Fremont, CA, USA); purchased AnaSpec
# T1 sequence (P05067 672-713 limits assumed): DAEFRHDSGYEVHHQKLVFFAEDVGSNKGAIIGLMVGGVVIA
# Description: (§2) Thioflavin T is widely used to visualize and quantify the presence of misfolded amyloid protein aggregates in vitro [59]. […] In addition, DPPH radical (Sigma-Aldrich) was used to assay the free radical scavenging capacity of kaempferol, LM-031 and analogs (10–160 μM) as stated.
# [6] = tested on: Aβ-GFP SH-SY5Y cells; assay: ERK/PI3K kinase inhibitor treatment, immunoblot of TRKB downstream targets; format: cell-based, Human
# Description: Cells were plated in the presence of retinoic acid (5 × 10^5/6-well) on day 1, treated with tested compounds (5 μM) plus induced Aβ-GFP expression with doxycycline (5μg/ml) on day 2, as stated. Kinase inhibitors U0126 (an inhibitor of ERK) or wortmannin (an inhibitor of PI3K) (LC Laboratories, Woburn, MA, USA) (10 μM) were added on day 6. The cells were collected on day 8 for BDNF, BCL2, BAX, total/phosphorylated TRKB, ERK, AKT, and CREB protein analysis as previously stated.
# as §1
# [7] = DPPH free radical scavenging assay; format: biochemical; details: compounds 10–160 μM
# Description: as §2
# [8] = 5 μM plus U0126 or wortmannin 10 μM
# [9] = 5 μM, no kinase inhibitor, induced untreated 70–71%
molecule,measurement,setting,value
O=C(c1ccccc1)c1cc2ccc(O)cc2oc1=O [LMDS-2],PAMPA-BBB classification,[1],BBB^+ (moderate)
same,"Papp at 18 h, 1 μM",[1]; PAMPA,3.81 ± 0.13 ×10⁻⁶ cm/s
same,p-CREB,[2]; 5 μM,85–97%
same,p-ERK,[2]; 5 μM,94–111%
same,p-AKT,[2]; 5 μM,115–118%
same,p-TRKB Y516 and Y817,[3],113–123%
same,intensity of GFP fluorescence,[4]; 1.2–5 μM,111–149%
same,EC50,[4],7.5 µM
same,EC50,[5],18 µM
same,p-ERK level,[6]; 5 μM plus U0126 10 μM,38–43%
same,BAX,[6]; [8],152–191%
same,BCL2,[6]; [8],80–121%
same,p-CREB,[6]; [8],52–84%
same,pro- and m-BDNF,[6]; [8],65–88%
same,BCL2,"[6]; 5 μM, induced untreated 44%",156–199%
same,p-CREB,"[6]; 5 μM, induced untreated 66%",127–142%
same,pro- and m-BDNF,"[6]; 5 μM, induced untreated 68–52%",100–169%
same,BAX,"[6]; 5 μM, induced untreated 225%",121–130%
same,p-AKT level,[6]; [9],110–111%
same,p-ERK level,[6]; [9],115%
same,EC50,[7],146 µM
COc1ccc2cc(C(=O)c3ccccc3)c(=O)oc2c1 [LMDS-3],PAMPA-BBB classification,[1],BBB^+ (high)
same,"Papp at 18 h, 1 μM",[1]; PAMPA,11.8 ± 4.11 ×10⁻⁶ cm/s
same,intensity of GFP fluorescence,[4]; 2.5–5 μM,111–149%
same,EC50,[4],11 µM
same,EC50,[5],14 µM
same,EC50,[7],167 µM
CC(=O)Oc1ccc2cc(C(=O)c3ccccc3)c(=O)oc2c1 [LMDS-4],"recovery at 18 h, 1 µM",[1]; PAMPA,12.7%
same,intensity of GFP fluorescence,[4]; 1.2–5 μM,111–149%
same,EC50,[4],7.2 µM
same,EC50,[5],< 5 µM
same,EC50,[7],116 µM
"CN1C(C(=O)Nc2ccccn2)=C(O)c2ccccc2S1(=O)=O [Piroxicam, piroxicam, reference compound]","Papp at 18 h, 1 μM",[1]; PAMPA,1.65 ± 0.17 ×10⁻⁶ cm/s
lucifer yellow [reference compound],% transport,[1]; PAMPA,0.00 (% Transport)
B1,p-CREB,[2]; 100 ng/ml,85–97%
same,p-ERK,[2]; 100 ng/ml,94–111%
same,p-AKT,[2]; 100 ng/ml,115–118%
